Results taken from PubChem BioAssay (NCI).
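Each compound was tested at five concentrations against cells in 96-well plates for 48 hours. Here, GI50 denotes the concentration required for 50% inhibition of growth. TGI marks complete inhibition of growth.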

Legend:
Assay in all cases: NCI-60 cell line screen, 48 h
[1] = tested on: COLO 205 colon
[2] = tested on: HOP-92 NSCLC
[3] = tested on: SF-295 CNS
[4] = tested on: NCI-H226 lung
[5] = tested on: RPMI-8226 leukemia
[6] = tested on: RXF 393 renal
[7] = tested on: HCC-2998 colon
[8] = tested on: HCT-116 colon
[9] = tested on: MALME-3M melanoma
[10] = tested on: UACC-62 melanoma
[11] = tested on: SW-620 colon
[12] = tested on: BT-549 breast
[13] = tested on: SNB-75 CNS
[14] = tested on: IGROV1 ovarian
[15] = tested on: MOLT-4 leukemia
[16] = tested on: DU-145 prostate
[17] = tested on: SF-268 CNS
[18] = tested on: MDA-MB-231 breast
[19] = tested on: ACHN renal
[20] = tested on: NCI-H522 lung
[21] = tested on: K-562 leukemia
[22] = tested on: OVCAR-4 ovarian
[23] = tested on: SNB-19 CNS
[24] = tested on: SF-539 CNS
[25] = tested on: NCI-H460 lung
[26] = tested on: HT29 colon
[27] = tested on: KM12 colon
[28] = tested on: NCI-H23 lung
[29] = tested on: SK-OV-3 ovarian
[30] = tested on: SN12C renal
[31] = tested on: MDA-MB-435
[32] = tested on: HOP-62 NSCLC
[33] = tested on: M14 melanoma
[34] = tested on: PC-3 prostate
[35] = tested on: TK-10 renal
[36] = tested on: T-47D breast
[37] = tested on: UO-31 renal
[38] = tested on: U251 CNS
[39] = tested on: SK-MEL-2 melanoma
[40] = tested on: A549 NSCLC
[41] = tested on: UACC-257 melanoma
[42] = tested on: HL-60(TB) leukemia
[43] = tested on: MDA-MB-468 breast
[44] = tested on: CAKI-1 renal
[45] = tested on: OVCAR-5 ovarian
[46] = tested on: A498 renal
[47] = tested on: MCF7 breast
[48] = tested on: OVCAR-8 ovarian
[49] = tested on: NCI/ADR-RES ovarian
[50] = tested on: LOX IMVI melanoma
[51] = tested on: SR leukemia
[52] = tested on: CCRF-CEM leukemia
[53] = tested on: EKVX NSCLC
[54] = tested on: HS 578T breast
[55] = tested on: SK-MEL-5 melanoma
[56] = tested on: OVCAR-3 ovarian
[57] = tested on: HCT-15 colon
[58] = tested on: SK-MEL-28 melanoma
[59] = tested on: 786-0 renal

Question: Which results are given for `O=C(Cn1c(-c2ccccc2)nc2ccccc21)N=Nc1c(O)[nH]c2ccc(Br)cc12`?
Answer: GI50 [1]: 18.9 µM; TGI [1]: 46.2 µM; GI50 [2]: 15.4 µM; TGI [2]: 34.2 µM; GI50 [3]: 12.7 µM; TGI [3]: 28 µM; GI50 [4]: 11.1 µM; TGI [4]: 28.3 µM; GI50 [5]: 35.6 µM; TGI [5]: > 100 µM; GI50 [6]: 10.3 µM; TGI [6]: 23.9 µM; GI50 [7]: 14.8 µM; TGI [7]: 31.3 µM; GI50 [8]: 18.2 µM; TGI [8]: 45.8 µM; GI50 [9]: 12.3 µM; TGI [9]: 27.1 µM; GI50 [10]: 12.1 µM; TGI [10]: 25.9 µM; GI50 [11]: 18.1 µM; TGI [11]: 52.9 µM; GI50 [12]: 16 µM; TGI [12]: 36.9 µM; GI50 [13]: 9.46 µM; TGI [13]: 23.6 µM; GI50 [14]: 12 µM; TGI [14]: 29.7 µM; GI50 [15]: 17.6 µM; TGI [15]: > 100 µM; GI50 [16]: 19.6 µM; TGI [16]: 42.3 µM; GI50 [17]: 16.2 µM; TGI [17]: 38.3 µM; GI50 [18]: 12 µM; TGI [18]: 27.9 µM; GI50 [19]: 15.6 µM; TGI [19]: 34.1 µM; GI50 [20]: 7.31 µM; TGI [20]: 22.4 µM; GI50 [21]: 9.48 µM; TGI [21]: > 100 µM; GI50 [22]: 15.9 µM; TGI [22]: 36.5 µM; GI50 [23]: 17.3 µM; TGI [23]: 40.8 µM; GI50 [24]: 14.4 µM; TGI [24]: 29.7 µM; GI50 [25]: 16.8 µM; TGI [25]: 35 µM; GI50 [26]: 14.3 µM; TGI [26]: 30.4 µM; GI50 [27]: 14.8 µM; TGI [27]: 52.9 µM; GI50 [28]: 16.3 µM; TGI [28]: 36.5 µM; GI50 [29]: 16.6 µM; TGI [29]: 38.4 µM; GI50 [30]: 16.2 µM; TGI [30]: 41.8 µM; GI50 [31]: 5.9 µM; TGI [31]: 21.3 µM; GI50 [32]: 14.6 µM; TGI [32]: 33 µM; GI50 [33]: 18.8 µM; TGI [33]: 52.3 µM; GI50 [34]: 15 µM; TGI [34]: 43.2 µM; GI50 [35]: 21 µM; TGI [35]: 40.3 µM; GI50 [36]: 11.5 µM; TGI [36]: 33.8 µM; GI50 [37]: 10 µM; TGI [37]: 26.8 µM; GI50 [38]: 16.2 µM; TGI [38]: 31.7 µM; GI50 [39]: 17 µM; TGI [39]: 42.9 µM; GI50 [40]: 14.7 µM; TGI [40]: 34.8 µM; GI50 [41]: 15.2 µM; TGI [41]: 31.7 µM; GI50 [42]: 25.5 µM; TGI [42]: > 100 µM; GI50 [43]: 2.54 µM; TGI [43]: 9.55 µM; GI50 [44]: 11.8 µM; TGI [44]: 25.7 µM; GI50 [45]: 22.9 µM; TGI [45]: 81.4 µM; GI50 [46]: 16 µM; TGI [46]: 31.1 µM; GI50 [47]: 5.87 µM; TGI [47]: 25.6 µM; GI50 [48]: 14.4 µM; TGI [48]: 31.1 µM; GI50 [49]: 15.4 µM; TGI [49]: 33.8 µM; GI50 [50]: 15 µM; TGI [50]: 31.7 µM; GI50 [51]: 6.04 µM; TGI [51]: > 100 µM; GI50 [52]: 34.8 µM; TGI [52]: > 100 µM; GI50 [53]: 11.3 µM; TGI [53]: 34.1 µM; GI50 [54]: 14.9 µM; TGI [54]: 47.3 µM; GI50 [55]: 13.9 µM; TGI [55]: 30.9 µM; GI50 [56]: 14.3 µM; TGI [56]: 30.3 µM; GI50 [57]: 12 µM; TGI [57]: 38.9 µM; GI50 [58]: 17.8 µM; TGI [58]: 36.7 µM; GI50 [59]: 17.5 µM; TGI [59]: 34.7 µM
